Measured values: US9682995B2, “Amino-substituted isothiazoles” (BAYER PHARMA AKTIENGESELLSCHAFT, priority 2013, dated 2017)

Assays:
Assay in all cases: Kinase Profiling (KINOMEscan)
Type in all cases: binding
[1] = target: 456 kinases (of these 395 non-mutant kinases) (Homo sapiens, UniProt Q9Y2H1); conditions: NDR2; 10 μM
[2] = target: 456 kinases (of these 395 non-mutant kinases) (Homo sapiens, UniProt Q15569); conditions: TESK1; 10 μM
[3] = target: 456 kinases (of these 395 non-mutant kinases) (Homo sapiens, UniProt P10721, V559D/V654A); conditions: KIT(V559D,V654A); 10 μM
Sequence of 456 kinases (of these 395 non-mutant kinases) (Homo sapiens, UniProt P10721, V559D/V654A) (P10721 26-976 V559D/V654A limits assumed): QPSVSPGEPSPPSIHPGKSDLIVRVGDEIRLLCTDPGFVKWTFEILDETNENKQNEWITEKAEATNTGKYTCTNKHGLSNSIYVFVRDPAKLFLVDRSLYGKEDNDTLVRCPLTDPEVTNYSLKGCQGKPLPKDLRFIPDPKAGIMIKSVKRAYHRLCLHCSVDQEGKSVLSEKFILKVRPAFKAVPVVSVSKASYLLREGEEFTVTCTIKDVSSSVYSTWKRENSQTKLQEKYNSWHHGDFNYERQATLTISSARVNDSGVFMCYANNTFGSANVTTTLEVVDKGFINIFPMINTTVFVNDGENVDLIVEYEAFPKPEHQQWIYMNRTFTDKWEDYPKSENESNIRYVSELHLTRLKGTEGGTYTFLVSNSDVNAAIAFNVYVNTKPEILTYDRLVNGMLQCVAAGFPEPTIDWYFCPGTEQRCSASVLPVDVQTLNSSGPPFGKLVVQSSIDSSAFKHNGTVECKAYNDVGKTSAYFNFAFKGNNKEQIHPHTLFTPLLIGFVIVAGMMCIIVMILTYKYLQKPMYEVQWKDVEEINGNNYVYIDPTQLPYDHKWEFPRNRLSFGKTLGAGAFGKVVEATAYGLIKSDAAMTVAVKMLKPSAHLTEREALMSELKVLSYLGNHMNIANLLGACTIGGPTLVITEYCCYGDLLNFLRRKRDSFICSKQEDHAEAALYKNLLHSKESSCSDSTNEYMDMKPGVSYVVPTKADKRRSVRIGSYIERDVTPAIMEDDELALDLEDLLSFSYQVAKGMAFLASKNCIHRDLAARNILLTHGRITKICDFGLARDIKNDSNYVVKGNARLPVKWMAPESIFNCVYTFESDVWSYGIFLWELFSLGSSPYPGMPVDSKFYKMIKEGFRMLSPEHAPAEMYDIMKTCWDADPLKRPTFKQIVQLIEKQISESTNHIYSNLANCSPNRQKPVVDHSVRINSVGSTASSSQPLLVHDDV

[4] = target: 456 kinases (of these 395 non-mutant kinases) (Homo sapiens, UniProt Q13873); conditions: BMPR2; 10 μM
[5] = target: 456 kinases (of these 395 non-mutant kinases) (Homo sapiens, UniProt Q13153); conditions: PAK1; 10 μM
Sequence of 456 kinases (of these 395 non-mutant kinases) (Homo sapiens, UniProt Q13153) (Q13153 2-545 limits assumed, change not shown): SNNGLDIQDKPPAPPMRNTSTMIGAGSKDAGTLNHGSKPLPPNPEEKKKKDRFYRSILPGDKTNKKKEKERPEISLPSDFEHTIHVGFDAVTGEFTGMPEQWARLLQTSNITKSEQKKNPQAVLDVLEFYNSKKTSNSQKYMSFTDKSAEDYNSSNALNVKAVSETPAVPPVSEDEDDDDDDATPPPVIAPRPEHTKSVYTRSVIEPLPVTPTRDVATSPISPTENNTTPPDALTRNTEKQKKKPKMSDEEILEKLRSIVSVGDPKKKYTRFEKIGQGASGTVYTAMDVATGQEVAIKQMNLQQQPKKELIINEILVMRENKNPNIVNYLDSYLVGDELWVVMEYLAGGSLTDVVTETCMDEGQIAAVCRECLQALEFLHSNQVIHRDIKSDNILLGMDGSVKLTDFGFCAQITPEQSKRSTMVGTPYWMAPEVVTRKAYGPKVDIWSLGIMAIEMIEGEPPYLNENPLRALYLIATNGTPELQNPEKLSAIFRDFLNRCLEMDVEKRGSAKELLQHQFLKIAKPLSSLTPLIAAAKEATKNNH

[6] = target: 456 kinases (of these 395 non-mutant kinases) (Homo sapiens, UniProt P53779); conditions: JNK3; 10 μM
[7] = target: 456 kinases (of these 395 non-mutant kinases) (Homo sapiens, UniProt P20794); conditions: MAK; 10 μM
[8] = target: 456 kinases (of these 395 non-mutant kinases) (Homo sapiens, UniProt P51451); conditions: BLK; 10 μM
Sequence of 456 kinases (of these 395 non-mutant kinases) (Homo sapiens, UniProt P51451) (P51451 2-505 limits assumed, change not shown): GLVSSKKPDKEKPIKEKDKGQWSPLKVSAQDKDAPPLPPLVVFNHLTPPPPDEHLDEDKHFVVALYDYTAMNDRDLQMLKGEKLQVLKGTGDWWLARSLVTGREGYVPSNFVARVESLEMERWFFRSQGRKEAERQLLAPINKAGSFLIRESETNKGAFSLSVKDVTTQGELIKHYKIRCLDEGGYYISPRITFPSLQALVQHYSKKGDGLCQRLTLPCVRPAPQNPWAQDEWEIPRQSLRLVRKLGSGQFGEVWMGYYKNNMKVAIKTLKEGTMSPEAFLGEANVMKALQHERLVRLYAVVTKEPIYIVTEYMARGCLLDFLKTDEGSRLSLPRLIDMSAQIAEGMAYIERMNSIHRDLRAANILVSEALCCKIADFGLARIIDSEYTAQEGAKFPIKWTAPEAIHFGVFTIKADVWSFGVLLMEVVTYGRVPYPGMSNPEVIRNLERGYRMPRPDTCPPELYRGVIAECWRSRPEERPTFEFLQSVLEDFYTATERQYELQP

[9] = target: 456 kinases (of these 395 non-mutant kinases) (Homo sapiens, UniProt P0C264); conditions: SgK110; 10 μM
[10] = target: 456 kinases (of these 395 non-mutant kinases) (Homo sapiens, UniProt Q6DT37); conditions: DMPK2; 10 μM
[11] = target: 456 kinases (of these 395 non-mutant kinases) (Homo sapiens, UniProt Q96BR1); conditions: SGK3; 10 μM
[12] = target: 456 kinases (of these 395 non-mutant kinases) (Homo sapiens, UniProt P41240); conditions: CSK; 10 μM
Sequence of 456 kinases (of these 395 non-mutant kinases) (Homo sapiens, UniProt P41240) (P41240 2-450 limits assumed, change not shown): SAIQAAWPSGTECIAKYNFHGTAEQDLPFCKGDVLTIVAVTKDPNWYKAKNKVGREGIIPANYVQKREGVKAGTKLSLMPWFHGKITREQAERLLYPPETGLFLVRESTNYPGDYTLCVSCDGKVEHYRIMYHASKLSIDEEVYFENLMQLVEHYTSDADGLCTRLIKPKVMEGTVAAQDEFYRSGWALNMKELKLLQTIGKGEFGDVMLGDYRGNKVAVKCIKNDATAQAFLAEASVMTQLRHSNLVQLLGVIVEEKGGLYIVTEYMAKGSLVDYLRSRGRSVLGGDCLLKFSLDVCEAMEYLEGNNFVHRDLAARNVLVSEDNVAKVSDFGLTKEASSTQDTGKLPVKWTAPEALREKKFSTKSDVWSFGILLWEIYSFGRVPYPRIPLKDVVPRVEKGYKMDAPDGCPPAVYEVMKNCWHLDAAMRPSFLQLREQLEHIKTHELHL

[13] = target: 456 kinases (of these 395 non-mutant kinases) (Homo sapiens, UniProt Q05655); conditions: PRKCD; 10 μM
[14] = target: 456 kinases (of these 395 non-mutant kinases) (Homo sapiens, UniProt P53350); conditions: PLK1; 10 μM
Sequence of 456 kinases (of these 395 non-mutant kinases) (Homo sapiens, UniProt P53350) (P53350 2-603 limits assumed, change not shown): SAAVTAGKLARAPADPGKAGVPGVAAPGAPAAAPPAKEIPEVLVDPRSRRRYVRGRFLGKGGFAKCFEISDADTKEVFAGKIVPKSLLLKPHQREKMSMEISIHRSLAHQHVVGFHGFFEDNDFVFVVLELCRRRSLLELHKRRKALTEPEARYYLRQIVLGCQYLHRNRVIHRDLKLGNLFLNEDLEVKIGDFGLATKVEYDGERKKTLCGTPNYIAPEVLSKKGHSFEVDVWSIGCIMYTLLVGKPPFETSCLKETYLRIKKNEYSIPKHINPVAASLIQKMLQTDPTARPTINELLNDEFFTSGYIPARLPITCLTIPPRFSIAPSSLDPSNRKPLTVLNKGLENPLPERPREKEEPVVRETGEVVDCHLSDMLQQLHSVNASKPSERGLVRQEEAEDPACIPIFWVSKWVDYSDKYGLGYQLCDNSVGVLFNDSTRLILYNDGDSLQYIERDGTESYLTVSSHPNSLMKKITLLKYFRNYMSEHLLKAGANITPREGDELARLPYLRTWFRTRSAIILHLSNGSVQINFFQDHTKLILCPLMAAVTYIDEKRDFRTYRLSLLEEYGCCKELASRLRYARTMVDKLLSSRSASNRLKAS

[15] = target: 456 kinases (of these 395 non-mutant kinases) (Homo sapiens, UniProt Q9Y616); conditions: IRAK3; 10 μM
[16] = target: 456 kinases (of these 395 non-mutant kinases) (Homo sapiens, UniProt Q9NSY1); conditions: BIKE; 10 μM
[17] = target: 456 kinases (of these 395 non-mutant kinases) (Homo sapiens, UniProt Q8TD19); conditions: NEK9; 10 μM
[18] = target: 456 kinases (of these 395 non-mutant kinases) (Homo sapiens, UniProt P42681); conditions: TXK; 10 μM
[19] = target: 456 kinases (of these 395 non-mutant kinases) (Homo sapiens, UniProt Q9UQ88); conditions: CDC2L2; 10 μM
[20] = target: 456 kinases (of these 395 non-mutant kinases) (Homo sapiens, UniProt Q13557); conditions: CAMK2D; 10 μM
Sequence of 456 kinases (of these 395 non-mutant kinases) (Homo sapiens, UniProt Q13557) (Q13557 2-499 limits assumed, stated change not applied): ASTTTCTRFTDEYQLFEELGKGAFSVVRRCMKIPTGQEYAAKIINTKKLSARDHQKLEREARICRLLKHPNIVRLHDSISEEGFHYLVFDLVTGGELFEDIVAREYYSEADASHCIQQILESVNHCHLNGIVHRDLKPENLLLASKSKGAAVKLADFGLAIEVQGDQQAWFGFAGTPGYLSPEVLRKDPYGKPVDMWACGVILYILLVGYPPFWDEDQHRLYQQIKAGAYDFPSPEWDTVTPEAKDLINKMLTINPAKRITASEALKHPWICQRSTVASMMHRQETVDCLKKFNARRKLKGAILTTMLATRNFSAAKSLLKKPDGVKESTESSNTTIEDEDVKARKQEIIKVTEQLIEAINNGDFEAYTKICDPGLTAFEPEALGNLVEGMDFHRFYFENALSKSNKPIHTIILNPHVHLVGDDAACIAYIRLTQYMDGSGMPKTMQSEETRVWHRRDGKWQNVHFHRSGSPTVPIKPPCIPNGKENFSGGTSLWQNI

[21] = target: 456 kinases (of these 395 non-mutant kinases) (Homo sapiens, UniProt P42336, I800L); conditions: PIK3CA(I800L); 10 μM
[22] = target: 456 kinases (of these 395 non-mutant kinases) (Homo sapiens, UniProt O14733); conditions: MKK7; 10 μM
Sequence of 456 kinases (of these 395 non-mutant kinases) (Homo sapiens, UniProt O14733) (O14733 2-419 limits assumed, change not shown): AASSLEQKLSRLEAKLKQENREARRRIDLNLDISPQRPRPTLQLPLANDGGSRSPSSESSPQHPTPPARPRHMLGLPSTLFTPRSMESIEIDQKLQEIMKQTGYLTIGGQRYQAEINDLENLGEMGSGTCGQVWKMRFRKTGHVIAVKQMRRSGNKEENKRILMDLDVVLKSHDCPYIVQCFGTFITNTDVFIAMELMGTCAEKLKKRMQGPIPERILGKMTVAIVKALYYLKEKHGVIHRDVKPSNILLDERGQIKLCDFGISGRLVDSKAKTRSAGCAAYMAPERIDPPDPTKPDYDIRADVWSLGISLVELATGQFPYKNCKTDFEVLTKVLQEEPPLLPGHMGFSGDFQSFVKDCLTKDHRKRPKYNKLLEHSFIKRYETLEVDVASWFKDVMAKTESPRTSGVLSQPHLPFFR

[23] = target: 456 kinases (of these 395 non-mutant kinases) (Homo sapiens, UniProt Q9Y2H9); conditions: MAST1; 10 μM
[24] = target: 456 kinases (of these 395 non-mutant kinases) (Homo sapiens, UniProt Q96SB4); conditions: SRPK1; 10 μM
[25] = target: 456 kinases (of these 395 non-mutant kinases) (Homo sapiens, UniProt P36888, D835H); conditions: FLT3(D835H); 10 μM
[26] = target: 456 kinases (of these 395 non-mutant kinases) (Homo sapiens, UniProt P21860); conditions: ERBB3; 10 μM
[27] = target: 456 kinases (of these 395 non-mutant kinases) (Homo sapiens, UniProt O15146); conditions: MUSK; 10 μM
[28] = target: 456 kinases (of these 395 non-mutant kinases) (Homo sapiens, UniProt O76039); conditions: CDKL5; 10 μM
[29] = target: 456 kinases (of these 395 non-mutant kinases) (Homo sapiens, UniProt P00519, Y253F); conditions: ABL1(Y253F)-phosphorylated; 10 μM
[30] = target: 456 kinases (of these 395 non-mutant kinases) (Homo sapiens, UniProt P00533, L858R); conditions: EGFR(L858R); 10 μM
[31] = target: 456 kinases (of these 395 non-mutant kinases) (Homo sapiens, UniProt P11802); conditions: 10 μM
Sequence of 456 kinases (of these 395 non-mutant kinases) (Homo sapiens, UniProt P11802) (P11802 2-303 limits assumed, change not shown): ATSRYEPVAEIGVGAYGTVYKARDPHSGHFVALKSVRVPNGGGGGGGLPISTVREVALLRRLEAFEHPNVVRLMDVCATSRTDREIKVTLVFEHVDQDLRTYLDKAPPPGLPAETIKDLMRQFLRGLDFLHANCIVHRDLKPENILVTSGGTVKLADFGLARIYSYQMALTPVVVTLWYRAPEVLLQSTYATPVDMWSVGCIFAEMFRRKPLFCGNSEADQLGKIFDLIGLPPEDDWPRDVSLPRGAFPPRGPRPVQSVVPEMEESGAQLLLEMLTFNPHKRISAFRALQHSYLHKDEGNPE

[32] = target: 456 kinases (of these 395 non-mutant kinases) (Homo sapiens, UniProt Q9HBY8); conditions: SGK2; 10 μM

Sequence of 456 kinases (of these 395 non-mutant kinases) (Homo sapiens, UniProt Q9Y2H1) (Q9Y2H1 2-464 limits assumed, change not shown): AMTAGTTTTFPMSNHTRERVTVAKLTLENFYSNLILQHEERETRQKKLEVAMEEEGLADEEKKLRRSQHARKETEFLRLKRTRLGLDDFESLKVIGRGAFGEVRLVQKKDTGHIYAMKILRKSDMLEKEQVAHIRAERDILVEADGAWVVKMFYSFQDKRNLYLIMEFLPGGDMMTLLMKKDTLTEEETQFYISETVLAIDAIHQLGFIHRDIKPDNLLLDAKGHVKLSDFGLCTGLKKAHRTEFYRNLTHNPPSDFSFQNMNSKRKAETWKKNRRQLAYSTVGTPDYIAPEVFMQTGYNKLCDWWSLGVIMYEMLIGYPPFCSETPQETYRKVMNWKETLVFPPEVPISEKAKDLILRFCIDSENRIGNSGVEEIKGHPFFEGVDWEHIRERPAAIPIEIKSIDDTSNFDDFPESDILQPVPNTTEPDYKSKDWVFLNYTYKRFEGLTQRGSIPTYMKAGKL

With CCc1ccccc1NC(=O)c1c(C)nsc1Nc1cnc2cc(F)ccc2n1 [Example 20, N-(2-Ethylphenyl)-5-[(6-fluoroquinoxalin-2-yl)amino]-3-methyl-1,2-thiazole-4-carboxamide] the “% Ctrl @ 10 μM” value [1] was 75 % Ctrl, the “% Ctrl @ 10 μM” value [2] was 78 % Ctrl and the “% Ctrl @ 10 μM” value [3] was 96 % Ctrl. For the same compound, the “% Ctrl @ 10 μM” value [4] was 100 % Ctrl, the “% Ctrl @ 10 μM” value [5] was 100 % Ctrl and the “% Ctrl @ 10 μM” value [6] was 100 % Ctrl. The “% Ctrl @ 10 μM” value [7] was 100 % Ctrl, the “% Ctrl @ 10 μM” value [8] was 100 % Ctrl and the “% Ctrl @ 10 μM” value [9] was 100 % Ctrl. For the same compound, the “% Ctrl @ 10 μM” value [10] was 79 % Ctrl, the “% Ctrl @ 10 μM” value [11] was 100 % Ctrl and the “% Ctrl @ 10 μM” value [12] was 100 % Ctrl. The “% Ctrl @ 10 μM” value [13] was 85 % Ctrl, the “% Ctrl @ 10 μM” value [14] was 87 % Ctrl and the “% Ctrl @ 10 μM” value [15] was 100 % Ctrl. For the same compound, the “% Ctrl @ 10 μM” value [16] was 62 % Ctrl, the “% Ctrl @ 10 μM” value [17] was 78 % Ctrl and the “% Ctrl @ 10 μM” value [18] was 71 % Ctrl. The “% Ctrl @ 10 μM” value [19] was 85 % Ctrl, the “% Ctrl @ 10 μM” value [20] was 89 % Ctrl and the “% Ctrl @ 10 μM” value [21] was 93 % Ctrl. The “% Ctrl @ 10 μM” value [22] was 100 % Ctrl, the “% Ctrl @ 10 μM” value [23] was 67 % Ctrl and the “% Ctrl @ 10 μM” value [24] was 86 % Ctrl. The “% Ctrl @ 10 μM” value [25] was 83 % Ctrl, the “% Ctrl @ 10 μM” value [26] was 99 % Ctrl and the “% Ctrl @ 10 μM” value [27] was 91 % Ctrl. For the same compound, the “% Ctrl @ 10 μM” value [28] was 100 % Ctrl, the “% Ctrl @ 10 μM” value [29] was 100 % Ctrl and the “% Ctrl @ 10 μM” value [30] was 96 % Ctrl. For the same compound, the “% Ctrl @ 10 μM” value ([31]; CDK4-cyclinD1) was 85 % Ctrl, the “% Ctrl @ 10 μM” value ([31]; CDK4-cyclinD3) was 93 % Ctrl and the “% Ctrl @ 10 μM” value [32] was 100 % Ctrl.
